Results as given in US8871683B2, “Dicamba herbicide composition” (Nufarm Australia Limited, priority 2008, dated 2014).

Test: Low temperature (cold storage) stability testing, CIPAC Method 39.3 (1999)
Assay type: physicochemical
Settings: for cold temperature stability at 0° C.: 750 g/L Dicamba (based on acid equivalent); for cold storage / low temperature stability at 0° C.: Dicamba 800 g/L acid equivalent
Description: Compositions described in the Examples were examined by the CIPAC Method 39.3 (1999) the procedure of which is noted below.
Transfer 100±1.0 ml of the formulation to the tube and insert the stopper. Cool to 0±2° C. in the refrigerator (Note 2). If the sample contains a dissolved crystalline pesticide, remove the tube from the refrigerator after 24 hours, take off the stopper, add a small crystal of the pure or technical pesticide (Note 3) and replace the stopper. Replace the tube in the refrigerator and allow it to remain at 0±2° C. for a total period of 7 days (Note 4).
At the end of this time, note the volume and nature of any separated material. If the liquid phase is not homogeneous, note the volume of each layer. If there is any separated material, then allow the tube to reach room temperature over a period of 24 hours (Note 5), invert once and again note the volume and nature of any separated material. • Note 1 A domestic refrigerator is often unsuitable because the on/off cycle may cover a range larger than 4° C. • Note 2 Alternatively a graduated emulsion tube meeting BS 658 class B, type 1 (Crow Receiver) may be used. • Note 3 A crystal from the commercial manufacturing process is preferred. Alternatively a crystal separated from the formulation e.g. by distillation of the solvent may be used. • Note 4 Other temperature-storage period combinations may be specified. • Note 5 Room temperature being defined as 23±2° C. Note any temperature outside this range.
Low temperature stability testing was carried out in accordance with the Standard CIPAC Method 39.3 (1999) and the resulting percentage crystallisation is reported in Table 3.

Row | SMILES | cold temperature stability at 0° C. | cold storage / low temperature stability at 0° C.
1 | CN.COc1c(Cl)ccc(Cl)c1C(=O)O [MMA salt] | not stable | Neither of the individual DMA or MMA salts were stable
2 | CNC.COc1c(Cl)ccc(Cl)c1C(=O)O [DMA salt] | not stable | Neither of the individual DMA or MMA salts were stable
